Where a name gives a salt, the structure may show the parent alone.
Test: Stability comparison under severe conditions (0.3% hydrogen peroxide, 80° C., content by HPLC)
Assay type: physicochemical
Details: for Drug content, 24 hrs / Drug content, 48 hrs / Drug content, 120 hrs / Drug content, Initial / Drug content, 72 hrs / Drug content, 144 hrs: 1 mg/mL in 0.3% hydrogen peroxide, chamber at 80° C.
Procedure: Each of the drugs shown in Table 5 was completely dissolved in a 0.3% hydrogen peroxide solution at a concentration of 1 mg/mL. While storage under stressed conditions at 80° C., changes in the contents of the drugs were monitored. The 0.3% hydrogen peroxide solution is a solution commonly used to quickly determine the stability of drugs and provides stressed conditions for artificial acceleration of the oxidation of the drugs. The content analysis was conducted by HPLC in accordance with the paroxetine content analysis defined in USP.

| Molecule | Drug content, 24 hrs | Drug content, 48 hrs (hydrochloride) | Drug content, 120 hrs (hydrochloride) | Drug content, Initial | Drug content, 48 hrs | Drug content, 120 hrs | Stability compared to other paroxetine salts (in words) (0.3% hydrogen peroxide, 80° C., HPLC) | Drug content, 72 hrs | Drug content, 144 hrs |
| --- | --- | --- | --- | --- | --- | --- | --- | --- | --- |
| Fc1ccc([C@@H]2CCNC[C@H]2COc2ccc3c(c2)OCO3)cc1 [Paroxetine HCl, paroxetine hydrochloride] | 84.5% | 53.8% | 13.4% | 100.0% |  |  |  |  |  |
| Fc1ccc([C@@H]2CCNC[C@H]2COc2ccc3c(c2)OCO3)cc1.O=C(O)[C@H]1OC(O)[C@H](O)[C@@H](O)[C@@H]1O [Paroxetine glucuronate] | 92.8% |  |  | 100.0% | 59.0% | 12.3% |  |  |  |
| C[C@H](CCC(=O)NCC(=O)O)[C@H]1CC[C@H]2[C@@H]3[C@H](O)C[C@@H]4C[C@H](O)CC[C@]4(C)[C@H]3C[C@H](O)[C@]12C.Fc1ccc([C@@H]2CCNC[C@H]2COc2ccc3c(c2)OCO3)cc1 [Paroxetine glycocholate, paroxetine glycocholate] | 96.8% |  |  | 100.0% | 89.6% | 54.3% | highly stable |  |  |
| Fc1ccc([C@@H]2CCNC[C@H]2COc2ccc3c(c2)OCO3)cc1.O=S(=O)(O)c1ccc2ccccc2c1 [Paroxetine napsylate] | 60.4% |  |  | 100.0% |  |  |  | 16.1% | 3.5% |
| Fc1ccc([C@@H]2CCNC[C@H]2COc2ccc3c(c2)OCO3)cc1.Fc1ccc([C@@H]2CCNC[C@H]2COc2ccc3c(c2)OCO3)cc1.O.O=C(O)C(O)C(O)C(=O)O.O=C(O)C(O)C(O)C(=O)O [Paroxetine tartarate] | 81.3% |  |  | 100.0% |  |  |  | 28.3% | 4.8% |
| paroxetine methanesulfonate | 74.4% |  |  | 100.0% | 31.8% |  |  | 16.6% |  |

Reference: US20060063747A1, “Paroxetine cholate or cholic acid derivative salts, and composition comprising paroxetine and cholic acid or derivative thereof” (priority 2004, published 2006)
